Test results published in patent US9573987B2 (priority 2011, dated 2017).

Experiments:
[1] = target: T1, IGF-1 receptor (Homo sapiens, UniProt P08069); test: IGF-1 receptor phosphorylation assay, receptor transfected HEK293 cells; assay type: cell-based; design: expressed in transfected cells; host or cells: HEK293
Method: Color development was stopped 5 min later by adding 0.05 ml 1 N HCl. Absorbance at 450 nm was measured on Titertek Multiscan MCC340 (ThermoFisher, Pittsburgh, Pa.).

[2] = target: insulin receptor (Homo sapiens, UniProt P06213); test: Insulin receptor binding assay (competition, scintillation proximity); design: expressed in transfected cells; plasma membrane fragments; details: Table 9
[3] = target: T1, IGF-1 receptor; test: IGF-1 receptor binding assay (competition, scintillation proximity); design: expressed in transfected cells; plasma membrane fragments; details: Table 9
[4] = target: T2, insulin subtype A receptor (IR-A) (Homo sapiens, UniProt P06213); test: Insulin subtype A receptor phosphorylation, receptor transfected HEK293 cells; assay type: cell-based; details: for IC50: read-out: Phosphorylation at Insulin Receptor Subtype A (IC50), Table 16A
T2 construct: expressed in transfected cells; host or cells: HEK293
Method: (§1) Color development was stopped 5 min later by adding 0.05 ml 1 N HCl. Absorbance at 450 nm was measured on Titertek Multiscan MCC340 (ThermoFisher, Pittsburgh, Pa.). […]

[5] = target: insulin subtype B receptor (IR-B) (Homo sapiens, UniProt P06213); test: Insulin subtype B receptor phosphorylation, receptor transfected HEK293 cells; assay type: cell-based; design: expressed in transfected cells; host or cells: HEK293; details: read-out: Phosphorylation at Insulin Receptor Subtype B (IC50); Table 16B
Method: as §1

T1 sequence (P08069 31-736 limits assumed): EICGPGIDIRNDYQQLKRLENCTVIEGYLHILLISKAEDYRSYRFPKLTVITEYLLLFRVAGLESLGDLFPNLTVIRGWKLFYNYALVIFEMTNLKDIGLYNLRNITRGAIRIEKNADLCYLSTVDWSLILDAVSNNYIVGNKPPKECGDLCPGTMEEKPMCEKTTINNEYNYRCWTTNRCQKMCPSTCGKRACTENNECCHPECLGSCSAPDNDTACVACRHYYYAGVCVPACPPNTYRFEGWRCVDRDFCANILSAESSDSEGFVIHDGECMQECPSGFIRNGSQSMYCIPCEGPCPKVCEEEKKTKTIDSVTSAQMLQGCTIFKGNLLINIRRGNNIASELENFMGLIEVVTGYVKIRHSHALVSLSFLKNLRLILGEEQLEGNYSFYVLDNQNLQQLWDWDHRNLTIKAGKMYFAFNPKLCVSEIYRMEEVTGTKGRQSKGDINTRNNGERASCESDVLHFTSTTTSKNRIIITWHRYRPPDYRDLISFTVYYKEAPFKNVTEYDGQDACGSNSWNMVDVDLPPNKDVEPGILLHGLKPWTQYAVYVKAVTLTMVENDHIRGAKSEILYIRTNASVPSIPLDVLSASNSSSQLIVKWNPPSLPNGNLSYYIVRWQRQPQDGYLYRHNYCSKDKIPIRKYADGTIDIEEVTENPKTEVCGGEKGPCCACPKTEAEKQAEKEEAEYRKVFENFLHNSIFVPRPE
T1 sequence (P08069 741-1367 partner limits assumed): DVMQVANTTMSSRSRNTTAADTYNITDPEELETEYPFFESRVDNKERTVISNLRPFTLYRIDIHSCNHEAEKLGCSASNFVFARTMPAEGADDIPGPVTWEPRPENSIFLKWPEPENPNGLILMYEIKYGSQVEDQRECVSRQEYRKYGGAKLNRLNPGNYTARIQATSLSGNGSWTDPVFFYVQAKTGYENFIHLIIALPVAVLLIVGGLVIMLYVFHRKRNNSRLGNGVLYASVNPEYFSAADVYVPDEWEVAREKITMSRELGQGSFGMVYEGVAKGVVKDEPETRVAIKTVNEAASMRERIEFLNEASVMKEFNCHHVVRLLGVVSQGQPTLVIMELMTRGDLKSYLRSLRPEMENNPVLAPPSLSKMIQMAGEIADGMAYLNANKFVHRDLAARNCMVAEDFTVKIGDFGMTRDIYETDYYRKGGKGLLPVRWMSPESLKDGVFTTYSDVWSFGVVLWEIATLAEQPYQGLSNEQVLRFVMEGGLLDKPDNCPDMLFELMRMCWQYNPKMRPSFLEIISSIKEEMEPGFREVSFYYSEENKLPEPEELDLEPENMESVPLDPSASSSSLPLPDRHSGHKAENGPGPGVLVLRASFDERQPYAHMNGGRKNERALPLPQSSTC

## CC[C@H](C)[C@H](NC(=O)CN)C(=O)N[C@H](C(=O)N[C@@H](CC(=O)O)C(=O)N[C@@H](CCC(=O)O)C(=O)N[C@H]1CSSC[C@@H]2NC(=O)[C@H](CO)NC(=O)[C@H](C)NC(=O)[C@H](Cc3c[nH]cn3)NC(=O)[C@H](CSSC[C@H](NC(=O)[C@H](CC(C)C)NC(=O)[C@H](Cc3c[nH]cn3)NC(=O)[C@H](CCC(=O)O)NC(=O)[C@@H]3CCCN3C(=O)CN)C(=O)NCC(=O)N[C@@H](C)C(=O)N[C@@H](CC(=O)O)C(=O)N[C@@H](CC(C)C)C(=O)N[C@@H](C(C)C)C(=O)N[C@@H](CC(=O)O)C(=O)N[C@@H](C)C(=O)N[C@@H](CC(C)C)C(=O)N[C@@H](Cc3ccc(O)cc3)C(=O)N[C@@H](CC(C)C)C(=O)N[C@@H](C(C)C)C(=O)N[C@H](C(=O)NCC(=O)N[C@@H](CC(=O)O)C(=O)N[C@@H](C)C(=O)NCC(=O)N[C@@H](Cc3ccccc3)C(=O)N[C@@H](Cc3ccc(O)cc3)C(N)=O)CSSC[C@@H](C(=O)N[C@@H](CC(N)=O)C(=O)O)NC(=O)[C@H](Cc3ccc(O)cc3)NC(=O)[C@H](CCSC)NC(=O)[C@H](CCC(=O)O)NC(=O)[C@H](CC(C)C)NC(=O)[C@H](CCCNC(=N)N)NC(=O)[C@H](CCCNC(=N)N)NC(=O)[C@H](CC(C)C)NC(=O)[C@H](CC(=O)O)NC2=O)NC1=O)C(C)C
[1]
  EC50: 11.3 nM
[1]; Table 10
  IGF-1 Receptor % IGF: 7.7%
[2]
  Insulin Receptor % insulin (in test): 1171.4%
[3]
  IGF-1 Receptor % IGF-1 (in test): 2.3%

## CC[C@H](C)[C@H](NC(=O)CN)C(=O)N[C@H](C(=O)N[C@@H](CC(=O)O)C(=O)N[C@@H](CCC(=O)O)C(=O)N[C@H]1CSSC[C@@H]2NC(=O)[C@H](CO)NC(=O)[C@H](C)NC(=O)[C@H](Cc3c[nH]cn3)NC(=O)[C@H](CSSC[C@H](NC(=O)[C@H](CC(C)C)NC(=O)[C@H](Cc3c[nH]cn3)NC(=O)[C@H](CCC(=O)O)NC(=O)[C@@H]3CCCN3C(=O)CN)C(=O)NCC(=O)N[C@@H](C)C(=O)N[C@@H](CC(=O)O)C(=O)N[C@@H](CC(C)C)C(=O)N[C@@H](C(C)C)C(=O)N[C@@H](CC(=O)O)C(=O)N[C@@H](C)C(=O)N[C@@H](CC(C)C)C(=O)N[C@@H](Cc3ccc(O)cc3)C(=O)N[C@@H](CC(C)C)C(=O)N[C@@H](C(C)C)C(=O)N[C@H](C(=O)NCC(=O)N[C@@H](CC(=O)O)C(=O)N[C@@H](C)C(=O)NCC(=O)N[C@@H](Cc3ccccc3)C(=O)N[C@@H](Cc3ccc(O)cc3)C(N)=O)CSSC[C@@H](C(=O)N[C@@H](CC(N)=O)C(=O)O)NC(=O)[C@H](Cc3ccc(O)cc3)NC(=O)[C@H](CC[S+](C)[O-])NC(=O)[C@H](CCC(=O)O)NC(=O)[C@H](CC(C)C)NC(=O)[C@H](CCCNC(=N)N)NC(=O)[C@H](CCCNC(=N)N)NC(=O)[C@H](CC(C)C)NC(=O)[C@H](CC(=O)O)NC2=O)NC1=O)C(C)C (stereo partly shown)
[2]
  Insulin Receptor % insulin (in test): 400.7%

## CC[C@H](C)[C@H](NC(=O)CN)C(=O)N[C@H](C(=O)N[C@@H](CC(=O)O)C(=O)N[C@@H](CCC(=O)O)C(=O)N[C@H]1CSSC[C@@H]2NC(=O)[C@H](CO)NC(=O)[C@H](CCCNC(=N)N)NC(=O)[C@H](Cc3ccccc3)NC(=O)[C@H](CSSC[C@H](NC(=O)[C@H](CC(C)C)NC(=O)[C@@H](NC(=O)[C@H](CCC(=O)O)NC(=O)[C@@H]3CCCN3C(=O)CN)[C@@H](C)O)C(=O)NCC(=O)N[C@@H](C)C(=O)N[C@@H](CCC(=O)O)C(=O)N[C@@H](CC(C)C)C(=O)N[C@@H](C(C)C)C(=O)N[C@@H](CC(=O)O)C(=O)N[C@@H](C)C(=O)N[C@@H](CC(C)C)C(=O)N[C@@H](Cc3ccc(O)cc3)C(=O)N[C@@H](CC(C)C)C(=O)N[C@@H](C(C)C)C(=O)N[C@H](C(=O)NCC(=O)N[C@@H](CC(=O)O)C(=O)N[C@@H](CCCNC(=N)N)C(=O)NCC(=O)N[C@@H](Cc3ccccc3)C(=O)N[C@@H](Cc3ccc(O)cc3)C(N)=O)CSSC[C@@H](C(=O)N[C@@H](C)C(N)=O)NC(=O)[C@H](Cc3ccc(O)cc3)NC(=O)[C@H](CCSC)NC(=O)[C@H](CCC(=O)O)NC(=O)[C@H](CC(C)C)NC(=O)[C@H](CCCNC(=N)N)NC(=O)[C@H](CCCNC(=N)N)NC(=O)[C@H](CC(C)C)NC(=O)[C@H](CC(=O)O)NC2=O)NC1=O)C(C)C [IGF-1 A:B (E10Y16L17) DPI]
[3]
  IGF-1 Receptor % IGF-1 (in test): 3.3%

## CC[C@H](C)[C@H](NC(=O)CN)C(=O)N[C@H](C(=O)N[C@@H](CC(=O)O)C(=O)N[C@@H](CCC(=O)O)C(=O)N[C@H]1CSSC[C@@H]2NC(=O)[C@H](CO)NC(=O)[C@H](CCCNC(=N)N)NC(=O)[C@H](Cc3ccccc3)NC(=O)[C@H](CSSC[C@H](NC(=O)[C@H](CC(C)C)NC(=O)[C@H](Cc3c[nH]cn3)NC(=O)[C@H](CCC(=O)O)NC(=O)[C@@H]3CCCN3C(=O)CN)C(=O)NCC(=O)N[C@@H](C)C(=O)N[C@@H](CC(=O)O)C(=O)N[C@@H](CC(C)C)C(=O)N[C@@H](C(C)C)C(=O)N[C@@H](CC(=O)O)C(=O)N[C@@H](C)C(=O)N[C@@H](CC(C)C)C(=O)N[C@@H](Cc3ccc(O)cc3)C(=O)N[C@@H](CC(C)C)C(=O)N[C@@H](C(C)C)C(=O)N[C@H](C(=O)NCC(=O)N[C@@H](CC(=O)O)C(=O)N[C@@H](CCCNC(=N)N)C(=O)NCC(=O)N[C@@H](Cc3ccccc3)C(=O)N[C@@H](Cc3ccc(O)cc3)C(N)=O)CSSC[C@@H](C(=O)N[C@@H](C)C(N)=O)NC(=O)[C@H](Cc3ccc(O)cc3)NC(=O)[C@H](CC[S+](C)[O-])NC(=O)[C@H](CCC(=O)O)NC(=O)[C@H](CC(C)C)NC(=O)[C@H](CCCNC(=N)N)NC(=O)[C@H](CCCNC(=N)N)NC(=O)[C@H](CC(C)C)NC(=O)[C@H](CC(=O)O)NC2=O)NC1=O)C(C)C (stereo partly shown) [IGF-1 A:B (H5D10Y16L17) (S═O)DPI]
[2]
  Insulin Receptor % insulin (in test): 316.0%

## CC[C@H](C)[C@H](NC(=O)CN)C(=O)N[C@H](C(=O)N[C@@H](CC(=O)O)C(=O)N[C@@H](CCC(=O)O)C(=O)N[C@H]1CSSC[C@@H]2NC(=O)[C@H](CO)NC(=O)[C@H](CCCNC(=N)N)NC(=O)[C@H](Cc3ccccc3)NC(=O)[C@H](CSSC[C@H](NC(=O)[C@H](CC(C)C)NC(=O)[C@@H](NC(=O)[C@H](CCC(=O)O)NC(=O)[C@@H]3CCCN3C(=O)CN)[C@@H](C)O)C(=O)NCC(=O)N[C@@H](C)C(=O)N[C@@H](CCC(=O)O)C(=O)N[C@@H](CC(C)C)C(=O)N[C@@H](C(C)C)C(=O)N[C@@H](CC(=O)O)C(=O)N[C@@H](C)C(=O)N[C@@H](CC(C)C)C(=O)N[C@@H](CCC(N)=O)C(=O)N[C@@H](Cc3ccccc3)C(=O)N[C@@H](C(C)C)C(=O)N[C@H](C(=O)NCC(=O)N[C@@H](CC(=O)O)C(=O)N[C@@H](CCCNC(=N)N)C(=O)NCC(=O)N[C@@H](Cc3ccccc3)C(=O)N[C@@H](Cc3ccc(O)cc3)C(=O)N[C@@H](Cc3ccccc3)C(=O)N[C@@H](CC(N)=O)C(=O)N[C@@H](CCCCN)C(=O)N3CCC[C@H]3C(=O)N[C@H](C(N)=O)[C@@H](C)O)CSSC[C@@H](C(=O)N[C@@H](C)C(N)=O)NC(=O)[C@H](Cc3ccc(O)cc3)NC(=O)[C@H](CCSC)NC(=O)[C@H](CCC(=O)O)NC(=O)[C@H](CC(C)C)NC(=O)[C@H](CCCNC(=N)N)NC(=O)[C@H](CCCNC(=N)N)NC(=O)[C@H](CC(C)C)NC(=O)[C@H](CC(=O)O)NC2=O)NC1=O)C(C)C [IGF-1 A:B]
[2]
  Insulin Receptor % insulin (in test): 5.8%
  Insulin Receptor % native insulin activity (0.6 nM): 5.8%

## DP20 random: CTP linker sequence randomized; linking peptide PPRPPQSASPPDLSPLSGTPSRPSLS; SEQ ID NO: 69 (listed as Homo sapiens)
[4]
  IC50: 8.08 nM
[5]
  IC50: 2.46 nM

B1: DP20 P to A: CTP linking peptide wherein the prolines have been replaced with alanine (SEQ ID NO: 70) (protein, listed as Homo sapiens)
chain: GEEEEEKGPEHLCGAHLVDALYLVCGDRGFYSSSSRAAAASLASASRLAGASDTAILAQKGIVDECCHRSCDLRRLENYCN
[4]; FIGS. 21, 23
  in vitro phosphorylation activity at the insulin subtype A receptor (result in words): appreciable activity at the insulin receptor, equivalent to that of native IGF-1

B2: DP-20, C^0: DP20 structure with the native proinsulin C peptide as the linking peptide (protein)
chain: GEEEEEKGPEHLCGAHLVDALYLVCGDRGFYRREAEDLQVGQVELGGGPGAGSLQPLALEGSLQRKGIVDECCHRSCDLRRLENYCN
[4]
  IC50: 84.3 nM
[5]
  IC50: 35.4 nM

B3: DP20, S2A: CTP linking peptide wherein the serines have been replaced with alanine (SEQ ID NO: 80) (protein, listed as Homo sapiens)
chain: GEEEEEKGPEHLCGAHLVDALYLVCGDRGFYAAAARAPPPALPAPARLPGPADTPILPQKGIVDECCHRSCDLRRLENYCN
[4]
  IC50: 11.8 nM
[5]
  IC50: 7.44 nM
